Measurements as given in ChEMBL document CHEMBL4393679, “Structure-Guided Drug Design of 6-Substituted Adenosine Analogues as Potent Inhibitors of Mycobacterium tuberculosis Adenosine Kinase” (J Med Chem, 2019).
Active and inactive are the calls of the source. The calls are words filed in the database; no cut-off is given here.

What was measured:
[1] = Toxicity in ND4 Swiss Webster mouse at 10 mg/kg, po administered as single dose via gavage; assay type: organism-based; conditions: in vivo
[2] = target: Adenosine kinase (Mycobacterium tuberculosis (strain ATCC 25618 / H37Rv)) (UniProt P9WID5); assay: Competitive-inhibition of wild-type N-terminal TEV cleavage site-fused/His-tagged Mycobacterium tuberculosis H37Rv adenosine kinase expressed in Escherichia coli BL21 (DE3) using varying levels of adenosine as substrate in presence of ATP and PEP by pyruvate kinase-lactate dehydrogenase-coupled UV-vis spectrophotometric based Cheng-Prusoff equation analysis
[3] = Toxicity in ND4 Swiss Webster mouse at 50 to 200 mg/kg, po administered once daily via gavage for 3 days measured twice daily during compound dosing; assay type: organism-based; conditions: in vivo, 72 h
[4] = Toxicity in ND4 Swiss Webster mouse assessed as change in body weight at 50 to 200 mg/kg, po administered once daily via gavage for 3 days measured twice daily during compound dosing; assay type: organism-based; conditions: in vivo, 72 h
[5] = target: Adenosine kinase (Mycobacterium tuberculosis (strain ATCC 25618 / H37Rv)) (UniProt P9WID5); assay: Inhibition of wild-type N-terminal TEV cleavage site-fused/His-tagged Mycobacterium tuberculosis H37Rv adenosine kinase expressed in Escherichia coli BL21 (DE3) at 12.5 uM using adenosine as substrate in presence of ATP and PEP by pyruvate kinase-lactate dehydrogenase coupled UV-vis spectrophotometric method relative to control

Adenosine kinase (Mycobacterium tuberculosis (strain ATCC 25618 / H37Rv)), sequence (P9WID5 2-324 limits assumed): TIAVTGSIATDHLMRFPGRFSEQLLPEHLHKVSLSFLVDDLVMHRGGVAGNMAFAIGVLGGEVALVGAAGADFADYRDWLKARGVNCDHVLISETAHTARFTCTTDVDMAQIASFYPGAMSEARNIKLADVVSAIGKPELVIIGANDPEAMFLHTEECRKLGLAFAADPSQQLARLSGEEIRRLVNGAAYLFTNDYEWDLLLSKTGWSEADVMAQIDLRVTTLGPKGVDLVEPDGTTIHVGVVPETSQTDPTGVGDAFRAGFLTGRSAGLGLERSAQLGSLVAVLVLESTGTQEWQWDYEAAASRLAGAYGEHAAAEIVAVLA

SMILES	Activity [1]	inhibition [2]	Activity [3]	Activity [4]	inhibition [5]
OC[C@H]1O[C@@H](n2cnc3c(N4CCN(c5ccc(-c6ccccc6)cc5)CC4)ncnc32)[C@H](O)[C@@H]1O	Non-Toxic	Active	Non-Toxic	Non-Toxic	–
Cc1ccc(S(=O)(=O)NC[C@H]2O[C@@H](n3cnc4c(N5CCN(c6ccc(C(F)(F)F)cc6)CC5)ncnc43)[C@H](O)[C@@H]2O)cc1	–	–	–	–	53%
